In patent US20070197525A1, “Novel tetracyclic tetrahydrofuran derivatives” (priority 2004, published 2007):

Tests used:
[1] = Metabolic stability assay using human liver microsomes; assay type: in vitro ADME; conditions: 5.0 μM test compound, 15 min incubation, LC-MS
Experimental: Compounds according to the invention were tested for metabolic stability in the following assay using human liver microsomes in comparison with prior art compound A, referred to above.
Sub-cellular tissue preparations are made by centrifugal separation after mechanical homogenization of tissue. Tissue is rinsed in ice cold 0.1 M Tris-HCl (pH 7.4) buffer to wash excess blood. Tissue is then blotted dry, weighed and chopped coarsely using surgical scissors. The tissue pieces are homogenized in 3 volumes of ice cold 0.1 M phosphate buffer (pH 7.4) for 7×10 sec. The vessel is kept in/on ice during the homogenization process. Tissue homogenates are centrifuged at 9000×g for 20 minutes at 4° C. The resulting supernatant can be stored at −80° C. and is designated ‘S9’.
The S9-fraction may be centrifuged at 100.000×g for 60 minutes (4° C.). The resulting supernatant is aspirated, aliquoted and designated ‘cytosol’. The pellet is re-suspended in 0.1 M phosphate buffer (pH 7.4) in a final volume of 1 mL per 0.5 g original tissue weight and designated ‘microsomes’.
The incubation is carried out in the following system:
• The reaction is started by the addition of 0.8 mM NADP and incubated for 15 min. • Total assay volume is 250 microliters. • The reaction is stopped by the addition of 2 volumes of DMSO (or acetonitrile). • The samples are centrifuged (10 min, 900×g) and supernatant stored at room temperature (when stopped with DMSO; no longer than 24 h) or −20° C. (when stopped with acetonitrile; no longer than 24 h) before analysis. • The supernatant material is then analysed by LC-MS to determine the extent of metabolism of the test compound in the microsomes

[2] = target: T1, human cloned 5-HT2A receptor (Homo sapiens, UniProt P28223); test: In vitro binding affinity for 5-HT2A receptor (radioligand binding); conditions: human cloned 5-HT2A receptor expressed in L929 cells, [125I]R91150 radioligand; read-out: 5-HT2A (pIC50) (converted)
T1 construct: expressed in transfected cells; host or cells: L929 cells
Experimental: (§1) The interaction of the compounds of Formula (I) with 5-HT2A and 5-HT2C receptors was assessed in in vitro radioligand binding experiments. In general, a low concentration of a radioligand with a high binding affinity for the receptor is incubated with a sample of a tissue preparation enriched in a particular receptor (1 to 5 mg tissue) in a buffered medium (0.2 to 5 ml). During the incubation, the radioligands bind to the receptor. When equilibrium of binding is reached, the receptor bound radioactivity is separated from the non-bound radioactivity, and the receptor bound activity is counted. The interaction of the test compounds with the receptors is assessed in competition binding experiments. Various concentrations of the test compound are added to the incubation mixture containing the tissue preparation and the radioligand. Binding of the radioligand will be inhibited by the test compound in proportion to its binding affinity and its concentration. The affinities of the compounds for the 5-HT2 receptors were measured by means of radioligand binding studies conducted with: (a) human cloned 5-HT2A receptor, expressed in L929 cells using [^125I]R91150 as radioligand and (b) human cloned 5-HT2C receptor, expressed in CHO cells using [^3H]mesulergine as radioligand.

[3] = target: T2, human cloned 5-HT2C receptor (Homo sapiens, UniProt P28335); test: In vitro binding affinity for 5-HT2C receptor (radioligand binding); conditions: human cloned 5-HT2C receptor expressed in CHO cells, [3H]mesulergine radioligand; read-out: 5-HT2C (pIC50) (converted)
T2 construct: expressed in transfected cells; host or cells: CHO cells
T2 sequence (P28335 33-458): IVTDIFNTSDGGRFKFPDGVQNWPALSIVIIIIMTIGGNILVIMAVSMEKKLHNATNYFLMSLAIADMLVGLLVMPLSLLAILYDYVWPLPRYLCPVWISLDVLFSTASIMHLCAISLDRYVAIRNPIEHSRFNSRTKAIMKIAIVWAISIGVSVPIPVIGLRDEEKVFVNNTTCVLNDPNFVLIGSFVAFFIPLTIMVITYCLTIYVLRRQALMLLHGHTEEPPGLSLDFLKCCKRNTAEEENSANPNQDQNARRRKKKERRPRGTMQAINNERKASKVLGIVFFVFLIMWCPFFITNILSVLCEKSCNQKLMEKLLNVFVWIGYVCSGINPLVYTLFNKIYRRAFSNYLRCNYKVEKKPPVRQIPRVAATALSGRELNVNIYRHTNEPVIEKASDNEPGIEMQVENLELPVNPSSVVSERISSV
Experimental: as §1

[4] = target: T3, human dopamine D2L receptor (Homo sapiens, UniProt P14416); test: In vitro assay for D2 receptor binding; conditions: for IC50: membranes of human D2L-transfected CHO cells, [3H]Spiperone radioligand, read-out: D2 (pIC50) (converted); for D2/NET: ratio of D2 pIC50 to NET-inhibition pIC50
T3 construct: expressed in transfected cells; host or cells: CHO cells (frozen membranes)
Experimental: Frozen membranes of human dopamine D2L receptor-transfected CHO cells were thawed, briefly homogenised using an Ultra-Turrax T25 homogeniser and diluted in Tris-HCl assay buffer containing NaCl, CaCl2, MgCl2, KCl (50, 120, 2, 1, and 5 mM respectively, adjusted to pH 7.7 with HCl) to an appropriate protein concentration optimised for specific and non-specific binding. Radioligand [^3H]Spiperone (NEN, specific activity ˜70 Ci/mmol) was diluted in assay buffer at a concentration of 2 nmol/L. Prepared radioligand (50 μl), along with 50 μl of either the 10% DMSO control, Butaclamol (10^−6 mol/l final concentration), or compound of interest, was then incubated (30 min, 37° C.) with 400 μl of the prepared membrane solution. Membrane-bound activity was filtered through a Packard Filtermate harvester onto GF/B Unifilterplates and washed with ice-cold Tris-HCl buffer (50 mM; pH 7.7; 6×0.5 ml). Filters were allowed to dry before adding scintillation fluid and counting in a Topcount scintillation counter. Percentage specific bound and competition binding curves were calculated using S-Plus software (Insightful).

[5] = target: T4, norepinephrine transporter (NET) (Rattus norvegicus, UniProt Q63380); test: In vitro assay for NET inhibition (radioligand binding, rat brain cortex); conditions: rat brain cortex membranes, [3H]Nixosetine radioligand; read-out: NET-inhibition (pIC50) (converted)
T4 construct: Cortex from rat brain was collected and homogenised; from tissue; host or cells: rat brain cortex membranes
Experimental: Cortex from rat brain was collected and homogenised using an Ultra-Turrax T25 and a Dual homogeniser in ice-cold homogenising buffer containing Tris, NaCl and KCl (50 mM, 120 mM and 5 mM, respectively, pH 7.4) prior to dilution to an appropriate protein concentration optimised for specific and non-specific binding. […] Membrane-bound activity was detected by filtration through a Packard Filtermate harvester onto GF/B Unifilterplates, washed with ice-cold Tris-HCl buffer, containing NaCl and KCl (50 mM, 120 mM and 4 mM; pH 7.4; 6×0.5 ml). Filters were allowed to dry for 24 h before adding scintillation fluid. Scintillation fluid was allowed to saturate filters for 24 h before counting in a Topcount scintillation counter. Percentage specific bound and competition binding curves were calculated using S-Plus software (Insightful).

T4 sequence (Q63380 1-617): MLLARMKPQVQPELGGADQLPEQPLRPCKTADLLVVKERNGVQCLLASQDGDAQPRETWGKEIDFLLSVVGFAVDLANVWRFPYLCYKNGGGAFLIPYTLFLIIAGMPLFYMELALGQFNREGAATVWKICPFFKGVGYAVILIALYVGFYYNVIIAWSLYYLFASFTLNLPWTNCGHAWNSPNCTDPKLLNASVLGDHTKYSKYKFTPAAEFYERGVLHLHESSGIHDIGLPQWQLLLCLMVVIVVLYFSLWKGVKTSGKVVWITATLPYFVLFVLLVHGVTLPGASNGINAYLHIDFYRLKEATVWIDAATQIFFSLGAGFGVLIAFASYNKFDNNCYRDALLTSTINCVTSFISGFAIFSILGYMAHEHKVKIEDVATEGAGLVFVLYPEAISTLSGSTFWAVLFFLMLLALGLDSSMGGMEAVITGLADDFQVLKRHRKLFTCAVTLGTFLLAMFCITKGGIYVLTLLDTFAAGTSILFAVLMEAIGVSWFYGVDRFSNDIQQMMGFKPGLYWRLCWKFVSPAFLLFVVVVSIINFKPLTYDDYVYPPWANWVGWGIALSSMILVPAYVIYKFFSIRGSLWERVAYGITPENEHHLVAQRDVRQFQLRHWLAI
T3 sequence (P14416 whole entry): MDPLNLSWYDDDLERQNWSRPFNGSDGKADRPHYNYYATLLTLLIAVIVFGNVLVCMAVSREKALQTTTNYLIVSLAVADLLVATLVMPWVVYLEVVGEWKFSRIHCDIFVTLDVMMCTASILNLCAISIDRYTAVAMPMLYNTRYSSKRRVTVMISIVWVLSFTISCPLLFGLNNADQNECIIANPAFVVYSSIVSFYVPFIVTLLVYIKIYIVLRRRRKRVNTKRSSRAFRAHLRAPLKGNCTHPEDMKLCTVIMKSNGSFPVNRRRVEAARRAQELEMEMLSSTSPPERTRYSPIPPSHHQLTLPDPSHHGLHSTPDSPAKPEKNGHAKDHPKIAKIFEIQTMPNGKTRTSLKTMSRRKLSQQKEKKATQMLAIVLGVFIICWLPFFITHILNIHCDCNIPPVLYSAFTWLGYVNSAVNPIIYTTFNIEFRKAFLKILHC
T1 sequence (P28223 whole entry): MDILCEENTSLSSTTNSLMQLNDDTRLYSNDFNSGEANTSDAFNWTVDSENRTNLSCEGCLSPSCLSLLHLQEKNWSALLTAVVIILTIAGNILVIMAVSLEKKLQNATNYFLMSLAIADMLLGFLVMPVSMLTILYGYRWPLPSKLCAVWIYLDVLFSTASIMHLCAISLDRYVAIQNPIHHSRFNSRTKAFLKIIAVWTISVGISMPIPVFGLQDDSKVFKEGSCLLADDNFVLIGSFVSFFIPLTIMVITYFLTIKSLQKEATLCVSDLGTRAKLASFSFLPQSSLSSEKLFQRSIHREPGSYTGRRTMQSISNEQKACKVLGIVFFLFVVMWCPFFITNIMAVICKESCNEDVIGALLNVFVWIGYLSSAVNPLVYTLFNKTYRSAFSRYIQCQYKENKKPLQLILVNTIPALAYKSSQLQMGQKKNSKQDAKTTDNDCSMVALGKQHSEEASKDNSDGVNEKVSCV

Row | Structure (SMILES) | % metabolised [1] [%] | IC50 [2] [nM] | IC50 [3] [nM] | IC50 [4] [nM] | D2/NET [4] | IC50 [5] [nM]
1 | CNCC1CC2c3ccccc3C(C)c3ccc(F)cc3C2O1 (single isomer, unassigned) [Compound 74] | 9 | 12.6 | 3.98 | 631 | 0.74 | 5.01
2 | C=C1c2ccccc2[C@H]2C[C@H](CN(C)C)O[C@@H]2c2cc(F)ccc21 [Compound 26] | 2.6 |  |  |  |  | 
3 | CN(C)C[C@H]1C[C@@H]2c3ccccc3[C@](C)(O)c3ccc(F)cc3[C@H]2O1 [Compound 41] | 2.25 | 31.6 | 50.1 | > 1000 | <0.87 | 126
4 | C[C@@H]1c2ccccc2[C@H]2C[C@H](CN(C)C)O[C@@H]2c2cc(F)ccc21 [Compound 66] | 11.35 | 25.1 | 3.98 | 316 | 0.86 | 31.6
5 | CCNC[C@H]1C[C@@H]2c3ccccc3[C@@H](OC)c3ccc(F)cc3[C@H]2O1 [Compound 110] |  | 1260 | 398 | > 10000 | <0.62 | 10
